Results: patent US6861217B1, “Variation in drug response related to polymorphisms in the β2-adrenergic receptor” (Genaissance Pharmaceuticals, Inc., priority 1998, dated 2005)

System: patients with asthma
Assay: bronchodilating response (FEF25-75) to albuterol in patients with asthma by 5′LC genotype
Assay type: in vivo, human
Details: for patients exhibiting a bronchodilating response (increase in FEF25-75 greater than 12%): 180 micrograms aerosolized, 30 minutes
Text: For this study, 134 patients with asthma were enrolled to determine whether either of the polymorphisms at nucleic acid −47 in the β2AR gene alter the bronchodilating response to β-agonist. The percent (%) change in the forced expiratory flow between 25% and 75% of the forced vital capacity (FEF25-75) was used as a measure of responsiveness. Patients underwent pulmonary function testing to measure FEF25-75 and then received 2 puffs (total of 180 micrograms) of aerosolized albuterol by metered dose inhaler. Thirty minutes later the FEF25-75 measurement was repeated. Based on accepted national standards, an increase in FEF25-75 of greater than 12% was considered a response, while 12% or less was considered no response.

SMILES: CC(C)(C)NCC(O)c1ccc(O)c(CO)c1 (stereo not drawn) [albuterol]
- patients exhibiting a bronchodilating response (increase in FEF25-75 greater than 12%) (TT genotype at the 5′LC PS): 28.8%
- odds ratio for having no response (TT genotype versus TC or CC): 2.47
- patients exhibiting a bronchodilating response (increase in FEF25-75 greater than 12%) (without TT genotype (TC or CC)): 71.1%
